In US20250034216A1, “STEREOSELECTIVE COVALENT LIGANDS FOR ONCOGENIC AND IMMUNOLOGICAL PROTEINS” (The Scripps Research Institute, priority 2021, published 2025):

Tests used:
[1] = target: T1, RAB40B_C77 (Homo sapiens, UniProt Q12829); assay: IA-DTB cysteine engagement; format: binding; settings: 22Rv1 cells, 20 μM probe, 1 h, relative to DMSO
T1 construct: endogenous in cells; host or cells: 22Rv1
T1 sequence (Q12829 1-278): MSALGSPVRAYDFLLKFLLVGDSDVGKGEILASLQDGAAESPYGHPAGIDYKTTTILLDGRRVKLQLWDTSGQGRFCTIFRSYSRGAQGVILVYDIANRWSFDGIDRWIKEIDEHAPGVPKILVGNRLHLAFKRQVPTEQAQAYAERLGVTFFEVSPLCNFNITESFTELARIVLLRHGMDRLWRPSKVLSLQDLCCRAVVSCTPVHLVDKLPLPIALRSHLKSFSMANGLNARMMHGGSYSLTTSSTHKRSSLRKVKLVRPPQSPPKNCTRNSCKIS
Summary of the method: (§1)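 Cells were treated in situ with electrophilic probes, then lysed, and the lysates (2 mg/mL protein) were labeled with IA-DTB for 1 h at ambient temperature. After reduction, alkylation and trypsin digestion, labeled peptides were streptavidin-enriched, TMT-labeled and fractionated. Engagement ratios are probe vs DMSO reporter intensities, averaged across replicates.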

[2] = target: T2, RTN4_C1101 (Homo sapiens, UniProt Q9NQC3); assay: IA-DTB cysteine engagement; format: binding; settings: 22Rv1 cells, 20 μM probe, 1 h, relative to DMSO
T2 construct: endogenous in cells; host or cells: 22Rv1
T2 sequence (Q9NQC3 1-1192): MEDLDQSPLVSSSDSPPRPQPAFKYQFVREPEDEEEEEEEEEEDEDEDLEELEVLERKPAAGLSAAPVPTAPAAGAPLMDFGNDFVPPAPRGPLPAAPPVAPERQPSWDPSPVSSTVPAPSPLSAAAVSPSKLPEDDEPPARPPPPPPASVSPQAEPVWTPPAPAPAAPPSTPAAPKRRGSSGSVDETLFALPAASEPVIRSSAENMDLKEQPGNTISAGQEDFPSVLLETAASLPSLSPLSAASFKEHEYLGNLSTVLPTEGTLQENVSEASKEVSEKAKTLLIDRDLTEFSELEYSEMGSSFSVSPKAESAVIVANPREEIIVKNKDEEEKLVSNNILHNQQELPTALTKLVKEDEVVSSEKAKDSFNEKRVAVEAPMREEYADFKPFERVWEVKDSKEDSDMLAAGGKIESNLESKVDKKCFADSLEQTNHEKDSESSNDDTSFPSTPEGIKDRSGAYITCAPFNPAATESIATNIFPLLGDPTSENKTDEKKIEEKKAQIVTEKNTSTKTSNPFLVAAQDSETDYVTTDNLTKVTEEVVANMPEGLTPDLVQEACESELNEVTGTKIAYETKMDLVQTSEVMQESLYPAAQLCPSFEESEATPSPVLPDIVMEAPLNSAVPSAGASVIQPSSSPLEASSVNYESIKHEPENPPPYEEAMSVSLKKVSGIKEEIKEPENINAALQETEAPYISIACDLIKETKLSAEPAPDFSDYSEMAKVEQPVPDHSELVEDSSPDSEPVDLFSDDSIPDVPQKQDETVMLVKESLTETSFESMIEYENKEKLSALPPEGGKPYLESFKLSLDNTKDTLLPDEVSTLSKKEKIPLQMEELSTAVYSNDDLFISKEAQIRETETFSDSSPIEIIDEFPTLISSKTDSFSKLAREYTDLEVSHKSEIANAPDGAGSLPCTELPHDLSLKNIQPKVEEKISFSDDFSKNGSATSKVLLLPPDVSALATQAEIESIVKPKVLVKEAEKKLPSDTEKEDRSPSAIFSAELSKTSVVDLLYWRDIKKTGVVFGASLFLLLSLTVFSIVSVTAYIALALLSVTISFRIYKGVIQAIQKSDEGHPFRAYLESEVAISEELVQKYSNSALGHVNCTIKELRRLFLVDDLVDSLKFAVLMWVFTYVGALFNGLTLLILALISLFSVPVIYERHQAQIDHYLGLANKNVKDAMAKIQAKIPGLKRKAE
Summary of the method: as §1

| Compound | % engagement RAB40B_C77 [1] | % engagement RTN4_C1101 [2] |
| --- | --- | --- |
| C=CC(=O)N1C[C@@H](c2ccc(Br)cc2)[C@H]1C(=O)Nc1cccc2cccnc12 [MY-1A, (2S,3R)-1-acryloyl-3-(4-bromophenyl)-N-(quinolin-8-yl)azetidine-2-carboxamide] | 100% | 85% |
| C=CC(=O)N1C[C@H](c2ccc(Br)cc2)[C@@H]1C(=O)Nc1cccc2cccnc12 [MY-1B, (2R,3S)-1-acryloyl-3-(4-bromophenyl)-N-(quinolin-8-yl)azetidine-2-carboxamide] | 100% | 87.5% |
| C=CC(=O)N1C[C@H](c2ccc(Br)cc2)[C@H]1C(=O)Nc1cccc2cccnc12 [MY-3A, (2S,3S)-1-acryloyl-3-(4-bromophenyl)-N-(quinolin-8-yl)azetidine-2-carboxamide] | −39% | 91.5% |
| C=CC(=O)N1C[C@H](c2ccc(Br)cc2)[C@H]1C(=O)Nc1cccc2cccnc12 [MY-3B, (2S,3S)-1-acryloyl-3-(4-bromophenyl)-N-(quinolin-8-yl)azetidine-2-carboxamide] | 12.5% | 85% |
